# Results published in patent publication US8372808B2, “Suppression of glial fibrillary acidic protein” (Wisconsin Alumni Research Foundation, priority 2008, dated 2013).
# Structures can show the parent of a compound that is named as a salt. Where two headings read alike, the source gives them in different places.
# Tests used:
# [1] = tested on: 2.2 kb human GFAP promoter; experiment: hGFAP promoter luciferase activity assay in 172.9 cells (primary astrocytes from dual luciferase transgenic mice); type: cell-based; conditions: for effect on GFAP promoter activity (luciferase expression driven by the hGFAP promoter): 172.9 cells, 3 days of treatment, 0-20 μM; for suppression in the promoter assay: secondary screen, 10 μM, 48 hours; for % GFAP reductions, luciferace expression from hGFAP promoter: tertiary screen, 48 hr exposure, at the MTDcc
# Experimental: Cell-based assays were performed as four different screens using enriched cortical primary astrocyte cultures developed from transgenic mice expressing both firefly and Renilla luciferase reporter genes were generated. Briefly, the'firefly luciferase was placed under the control of a 2.2 kb human GFAP promoter to monitor GFAP transcription, and the Renilla luciferase was placed under the control of a 0.5 kb human GAPDH (glyceraldehyde 3-phosphate dehydrogenase) promoter to monitor transcription of a housekeeping gene for signal normalization. See section B, below for more detail regarding the development of transgenic mouse strains. Cells used in the following examples (e.g., the cortical primary astrocyte cells termed “172.9 cells,” described below) were developed from the transgenic mice described in section B.
# Briefly, the cortices from individual pups were freed of meninges and placed into DMEM (Gibco) without serum, mechanically disassociated into single cells, suspended in medium containing DMEM supplemented with 10% fetal bovine serum (FBS; Hyclone), 100 U/ml penicillin, 100 μg/ml streptomycin (Gibco), seeded into T25 flasks (one brain per flask), and maintained in a humidified 5% CO2 atmosphere at 37° C. […] Medium was changed every 3 days. At 14-16 days in vitro (DIV), the flasks were shaken overnight at 200 rpm to remove oligodendrocytes and microglia. […] The cells were then suspended in DMEM with 10% FBS and plated (“passage 2”) on either 35 mm dishes, […], or 96-well plates (Corning) as needed. Cells were grown for varying days in vitro (DIV) at passage 2 and then used for various experiments. Tissue culture dishes and plates were pre-coated with 100 μg/ml poly-L-lysine for 1 h in a humidified 5% CO2 atmosphere at 37° C., and then allowed to air dry. […] Cell density was measured with the Vi-CELL cell counter (Beckman Coulter) or hemocytometer by the trypan-blue exclusion method. For simplicity, cells are referred to as “172.9 cells.”
# Briefly, 172.9 cells were plated on poly-L coated white 96-well plates at a density of 5000 cells per well, in 100 μl DMEM with 10% FBS. At twenty-four hours, cells were exposed to the different compounds at a final concentration of 10 μM (diluted from a 50 mM stock) prepared in new medium (DMEM with 10% FBS). […] After exposure to compounds, luciferase activity in the primary and secondary screenings was determined by adding 30 μl of Bright-Glo™ reagent (Promega) to the 100 μl of media and cells of each well in the white 96-well plates with the Biomek® FX liquid handler (Beckman Coulter). After incubation for 1 minute at room temperature, signals were measured with the Safire 2 plate reader using Magellan™ software (Tecan). Other specific methods and equipment are known in the art and can be used to measure luciferase expression levels. This assay method is termed the “hGFAP promoter luciferase activity assay.” A reduction in luciferase expression as determined by this assay is termed “hGFAP promoter luciferase reduction.” For some assays that were aimed at confirming results of the initial screens, the same amount of Bright-Glo™ reagent was applied to each well in 96-well plates and signals were detected with the GloRunner™ Microplate Luminometer (Turner Biosystems) using the Dual-Glo® luciferase assay according to the manufacturer's recommendations (E1910, Promega).
# In the secondary screen, cells were plated in a 96-well plate as described above for the primary screen.
# Some compounds were unavailable outside of the library collections, and could not be further tested.
# Each compound and concentration was analyzed in quadruplicate wells.
# Compounds were tested at eight different concentrations ranging from 0-20 μM. In addition, GFAP protein levels were measured using a sandwich ELISA, which has greater sensitivity and is more accurate than the cell-based ELISA used in the primary screens.
# mGFAP protein [2] = experiment: GFAP protein levels by ELISA in 172.9 cells treated with betulinic acid derivatives; type: cell-based, mouse; conditions: 7 days of treatment, 0-20 μM
# Experimental: FIG. 9A-D are graphs showing the effects of betulinic acid and betulinic acid derivatives on mGFAP protein levels in 172.9 cells after 7 days of treatment. In the graphs, ester and amide forms of various compounds are paired for comparison.
# 172.9 cells were used to test the effects of betulinic acid and betulinic acid derivatives on GFAP promoter activity and GFAP protein levels. Experiments were performed as previously described. Each of eight compounds (D-altroside (ester); D-altroside (amide); D-xyloside (ester); D-xyloside (amide); aglycon (ester); aglycon (amide); betulinic acid; 3-amino betulinic acid) was tested at a concentration of 0 μM, 0.1 μM, 0.5 μM, 1 μM, 5 μM, 10 μM, 15 μM, and 20 μM. […] Toxicity of the compounds was also evaluated.
# mGFAP protein [3] = experiment: cell-based GFAP protein level assay (cell-based ELISA) in 172.9 cells; design: species or system mouse; conditions: for suppression in the protein assay: secondary screen, 10 μM, 48 hours; for % GFAP reductions, mGFAP protein via ELISA: tertiary screen, 48 hr exposure, at the MTDcc
# 172.9 cells = experiment: cell viability (CellTiter-Glo) / MTDcc in 172.9 cells
# Experimental: Criterion for acceptable viability was >70% survival.
# Cell viability was determined as follows. After exposure to each compound (duplicate wells per compound), 50 μl of CellTitier-Glo Luminescent Cell Viability Assay reagent (G7571, Promega) was added to the 100 μl of media present in each well, and the luminescent signal (reflecting intracellular ATP level) was detected with either a Victor 3-V plate reader (Perkin Elmer) or GloRunner Microplate Luminometer (Turner Biosystems). Cell viability was expressed as a percent of non-treated control cells.
# A dose-response curve was created for each compound (0.1, 0.5, 1, 5, 10, 15, 20 μM) using 48 hr exposures. The MTDcc (“maximum tolerated dose—cell culture”) indicates the highest concentration that retained at least 70% cell viability. Each compound and concentration was analyzed in quadruplicate wells. EGCDG: epigallocatechin 3,5-digallate; NPPB: 5-nitro-2-phenylproplyaminobenzoic acid. As used herein, MTDcc refers to the MTD as determined by this assay under the above conditions.
# [4] = tertiary screen, 48 hr exposure, 0.1-20 μM, highest concentration that retained at least 70% cell viability
Compound,"% GFAP reductions, mGFAP protein via ELISA (mGFAP protein [3]) [%]","% GFAP reductions, luciferace expression from hGFAP promoter [1] [%]","MTDcc (172.9 cells; mouse, 48 h) [µM]",also measured
"C=C(C)[C@@H]1CC[C@]2(C(=O)O)CC[C@]3(C)[C@H](CCC4[C@@]5(C)CC[C@H](OC(=O)CNOC)C(C)(C)C5CC[C@]43C)C12 (stereo partly drawn) [aglycon (ester), (3S)—O—(N-Methoxyglycyl)betulinic acid]",–,–,–,effect on GFAP promoter activity (luciferase expression driven by the hGFAP promoter) [1]: decreased luciferase expression; effect on GFAP protein levels (mGFAP protein [2]): minimal effect
"C=C(C)[C@@H]1CC[C@]2(C(=O)O)CC[C@]3(C)[C@H](CCC4[C@@]5(C)CC[C@H](NC(=O)CNOC)C(C)(C)C5CC[C@]43C)C12 (stereo partly drawn) [aglycon (amide), (3S)—N—(N′-Methoxyglycyl)aminobetulinic acid]",–,–,–,effect on GFAP protein levels (mGFAP protein [2]): reduced GFAP protein levels more than the ester form
"C=C(C)[C@@H]1CC[C@]2(C(=O)O)CC[C@]3(C)[C@H](CCC4[C@@]5(C)CC[C@H](OC(=O)CN(OC)[C@@H]6OC[C@@H](O)C(O)C6O)C(C)(C)C5CC[C@]43C)C12 (stereo partly drawn) [D-xyloside (ester), (3S)—O—(N-Methoxy-N-β-D-xylosylglycyl)betulinic acid]",–,–,–,effect on GFAP promoter activity (luciferase expression driven by the hGFAP promoter) [1]: more dramatic decrease in GFAP promoter activity than the amide form; effect on GFAP protein levels (mGFAP protein [2]): reduced GFAP protein levels more than the amide form
CCOC(=O)NC1=C(N2CC2)C(=O)C(NC(=O)OCC)=C(N2CC2)C1=O [diaziquone],9.5,86,>20,suppression in the protein assay (mGFAP protein [3]): significant suppression; suppression in the promoter assay [1]: significant suppression
C[C@]12CC[C@@H]3c4ccc(OC(=O)c5ccccc5)cc4CC[C@H]3[C@@H]1CC[C@@H]2O [estradiol benzoate],−2.8,26,>20,–
CN(CC(=O)O)C(=N)NP(=O)(O)O [phosphocreatine],3.8,13,–,MTDcc (172.9 cells; [4]): >20 µM
"C=C(C)[C@@H]1CC[C@]2(C(=O)O)CC[C@]3(C)[C@H](CCC4[C@@]5(C)CC[C@H](N)C(C)(C)C5CC[C@]43C)C12 (stereo partly drawn) [3-amino betulinic acid, (3S)-Aminobetulinic acid]",–,–,–,effect on GFAP promoter activity (luciferase expression driven by the hGFAP promoter) [1]: decrease in GFAP promoter activity; effect on GFAP protein levels (mGFAP protein [2]): reduced GFAP protein levels more than the ester form
CCCCC(CC)CN1CN(CC(CC)CCCC)CC(C)(N)C1 (stereo not shown) [hexetidine],6.4,26,>20,–
"C=C(C)[C@@H]1CC[C@]2(C(=O)O)CC[C@]3(C)[C@H](CCC4[C@@]5(C)CC[C@H](OC(=O)CN(OC)[C@@H]6OC(CO)[C@@H](O)C(O)C6O)C(C)(C)C5CC[C@]43C)C12 (stereo partly drawn) [D-altroside (ester), (3S)—O—(N-Methoxy-N-β-D-altrosylglycyl)betulinic acid]",–,–,–,effect on GFAP promoter activity (luciferase expression driven by the hGFAP promoter) [1]: more dramatic decrease in GFAP promoter activity than the amide form; effect on GFAP protein levels (mGFAP protein [2]): reduced GFAP protein levels more than the amide form
CC/C(=C(\c1ccccc1)c1ccc(OCCN(C)C)cc1)c1ccccc1 [tamoxifen citrate],21.6,52,7.5,–
COP(=S)(OC)SCn1nnc2ccccc2c1=O [azinphos methyl],4.7,18,–,MTDcc (172.9 cells; [4]): >20 µM
O=c1c(-c2cc(O)c(O)c(O)c2)coc2cc(O)c(O)c(O)c12 [irigenol],1.8,28,>20,suppression in the protein assay (mGFAP protein [3]): significant suppression; suppression in the promoter assay [1]: significant suppression
Cc1nc2sccn2c(=O)c1CCN1CCC(=C(c2ccc(F)cc2)c2ccc(F)cc2)CC1 [ritanserin],9.6,29,12.5,–
C=C1CC[C@H](O)C/C1=C/C=C1\CCC[C@]2(C)[C@@H]([C@H](C)CCCC(C)C)CC[C@@H]12 [colecalciferol],−4.9,24,–,MTDcc (172.9 cells; [4]): >20 µM
CCOP(=S)(OCC)Oc1ccc2c(C)c(Cl)c(=O)oc2c1 [coumophos],0.4,10,–,MTDcc (172.9 cells): >20 µM
CCC(=O)O[C@]1(C(=O)CCl)[C@@H](C)C[C@H]2[C@@H]3CCC4=CC(=O)C=C[C@]4(C)[C@@]3(F)[C@@H](O)C[C@@]21C [clobetasol propionate],−7.6,25,>20,–
pyrogallin,3.3,22,–,MTDcc (172.9 cells; [4]): >20 µM
